Results from PMC6480153, “Discovery of Novel Triazole-Containing Pyrazole Ester Derivatives as Potential Antibacterial Agents” (Molecules, 2019).
Values after ≈ are worked out from the molar mass of the structure shown. Read-outs that look alike come from different tables or passages of the source.

How the values were obtained:
[1] = tested on: Listeria monocytogenes (ATCC-15313); experiment: MIC by agar-dilution method against Listeria monocytogenes; format: cell-based; details: for MIC: read-out: MIC L.m
Protocol: (§1) In vitro antimicrobial activity of the prepared compounds against four bacteria was evaluated by the conventional agar-dilution method. Ciprofloxacin was selected as a reference standard.
(§2) The solid media Luria-Bertani (LB)-Broth-Agar-Medium (tryptone 10 g/L, yeast 5 g/L, NaCl 10 g/L, agar 15 g/L, and distilled water 1000 mL, adjusted to pH 7.4 was used for testing the antibacterial activity.
(§3) The in vitro antibacterial activity for synthesized compounds 4a–m were evaluated using the agar-dilution method. […] Drugs (10.0 mg) were dissolved in DMSO (1 mL) and the solution was diluted with water (9 mL). […] The bacterial inocula were prepared by suspending 24 h-old bacterial colonies from LB-Broth-Agar-Medium in 0.85% saline. The inocula were adjusted to 0.5 McFarland Standard ([…]). The suspensions were then diluted in 0.85% saline to give 10^7 CFU/mL. Petri dishes were spot-inoculated with 1 μL of each of the prepared bacterial suspensions (10^4 CFU/spot) and incubated at 37 °C for 24 h. […] A control test was also performed with test medium supplemented with DMSO at the same dilutions as used in the experiment in order to ensure that the solvent had no influence on bacterial growth.

[2] = tested on: Salmonella gallinarum (ATCC-9184); experiment: MIC by agar-dilution method against Salmonella gallinarum; format: cell-based; details: 24 h; for MIC: Salmonella enterica, read-out: MIC S.e
Protocol: as §1, §2, §3

[3] = tested on: Staphylococcus aureus (ATCC-12600); experiment: MIC by agar-dilution method against Staphylococcus aureus; format: cell-based; details: for MIC: ATCC12600
Protocol: as §1, §2, §3

[4] = tested on: Escherichia coli (ATCC-25922); experiment: MIC by agar-dilution method against Escherichia coli; format: cell-based; details: 24 h; for MIC E. c: 37 °C
Protocol: as §1, §2, §3

DNA gyrase = molecular target: T1, DNA gyrase (Escherichia coli, UniProt P0AES4+P0AES6); experiment: DNA gyrase (topoisomerase II) supercoiling inhibition, gel electrophoresis; format: biochemical; details: Topoisomerase II supercoiling activity; enzyme isolated from Escherichia coli
T1 construct: First, the E. coli suspension is extracted to obtain a crude enzyme solution; endogenous in cells
T1 sequence (P0AES4 whole entry, one chain of several): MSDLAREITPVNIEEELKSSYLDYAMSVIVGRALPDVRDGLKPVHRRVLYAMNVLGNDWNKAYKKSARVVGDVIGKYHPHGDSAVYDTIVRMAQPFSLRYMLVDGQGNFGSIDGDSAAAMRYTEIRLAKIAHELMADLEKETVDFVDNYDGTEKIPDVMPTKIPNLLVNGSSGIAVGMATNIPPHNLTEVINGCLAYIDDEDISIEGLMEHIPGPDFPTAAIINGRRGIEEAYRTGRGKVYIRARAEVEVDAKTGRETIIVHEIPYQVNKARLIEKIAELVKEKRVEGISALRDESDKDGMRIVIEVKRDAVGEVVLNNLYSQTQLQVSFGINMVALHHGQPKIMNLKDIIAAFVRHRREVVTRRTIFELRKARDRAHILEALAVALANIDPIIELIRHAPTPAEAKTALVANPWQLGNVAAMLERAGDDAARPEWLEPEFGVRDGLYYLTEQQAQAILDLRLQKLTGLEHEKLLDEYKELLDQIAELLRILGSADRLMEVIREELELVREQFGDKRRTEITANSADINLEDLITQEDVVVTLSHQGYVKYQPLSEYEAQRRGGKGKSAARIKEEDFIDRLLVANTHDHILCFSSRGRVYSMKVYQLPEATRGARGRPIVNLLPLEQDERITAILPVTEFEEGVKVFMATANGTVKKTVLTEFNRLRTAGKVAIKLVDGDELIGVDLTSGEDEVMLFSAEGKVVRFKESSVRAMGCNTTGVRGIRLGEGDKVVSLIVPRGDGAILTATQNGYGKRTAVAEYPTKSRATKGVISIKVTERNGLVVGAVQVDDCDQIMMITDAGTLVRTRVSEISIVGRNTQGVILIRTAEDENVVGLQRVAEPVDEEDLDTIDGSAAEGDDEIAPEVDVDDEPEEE
Protocol: (§4) In order to determine the relationship between compounds and antibacterial activity, the inhibitory activity of selected compounds (4d and 4k) against DNA gyrase and topoisomerase IV isolated from Escherichia coli was examined.
(§5) The in vitro antibacterial activity of the target compounds was carried out on by the methods of Sato et al. and Peng and Marians. First, the E. coli suspension is extracted to obtain a crude enzyme solution. After the purification step, the selected compounds are determined by gel electrophoresis to obtain data of different gradient concentrations, thereby calculating the IC50 values.

topoisomerase IV = molecular target: T2, topoisomerase IV (Escherichia coli, UniProt P0AFI2+P20083); experiment: Topoisomerase IV decatenation inhibition, gel electrophoresis; format: biochemical; details: Topoisomerase IV decatenation activity, enzyme isolated from Escherichia coli
T2 construct: First, the E. coli suspension is extracted to obtain a crude enzyme solution; endogenous in cells
T2 sequence (P20083 whole entry): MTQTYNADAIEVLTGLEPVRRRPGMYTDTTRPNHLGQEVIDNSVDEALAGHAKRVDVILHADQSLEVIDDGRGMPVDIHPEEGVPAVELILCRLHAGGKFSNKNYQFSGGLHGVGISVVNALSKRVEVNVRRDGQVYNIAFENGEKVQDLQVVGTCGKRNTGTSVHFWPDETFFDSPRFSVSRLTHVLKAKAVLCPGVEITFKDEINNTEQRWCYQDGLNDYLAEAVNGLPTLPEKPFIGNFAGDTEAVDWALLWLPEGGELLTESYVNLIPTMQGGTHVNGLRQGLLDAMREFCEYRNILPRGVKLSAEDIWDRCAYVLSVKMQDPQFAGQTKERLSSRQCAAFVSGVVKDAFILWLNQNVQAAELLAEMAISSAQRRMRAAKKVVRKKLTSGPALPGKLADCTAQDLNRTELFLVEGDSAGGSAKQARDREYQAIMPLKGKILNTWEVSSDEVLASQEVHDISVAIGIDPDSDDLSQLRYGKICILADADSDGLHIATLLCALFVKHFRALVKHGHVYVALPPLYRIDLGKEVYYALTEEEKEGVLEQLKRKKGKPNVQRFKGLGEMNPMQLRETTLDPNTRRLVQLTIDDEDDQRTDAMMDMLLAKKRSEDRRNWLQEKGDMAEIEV
T2 sequence (P0AFI2 whole entry): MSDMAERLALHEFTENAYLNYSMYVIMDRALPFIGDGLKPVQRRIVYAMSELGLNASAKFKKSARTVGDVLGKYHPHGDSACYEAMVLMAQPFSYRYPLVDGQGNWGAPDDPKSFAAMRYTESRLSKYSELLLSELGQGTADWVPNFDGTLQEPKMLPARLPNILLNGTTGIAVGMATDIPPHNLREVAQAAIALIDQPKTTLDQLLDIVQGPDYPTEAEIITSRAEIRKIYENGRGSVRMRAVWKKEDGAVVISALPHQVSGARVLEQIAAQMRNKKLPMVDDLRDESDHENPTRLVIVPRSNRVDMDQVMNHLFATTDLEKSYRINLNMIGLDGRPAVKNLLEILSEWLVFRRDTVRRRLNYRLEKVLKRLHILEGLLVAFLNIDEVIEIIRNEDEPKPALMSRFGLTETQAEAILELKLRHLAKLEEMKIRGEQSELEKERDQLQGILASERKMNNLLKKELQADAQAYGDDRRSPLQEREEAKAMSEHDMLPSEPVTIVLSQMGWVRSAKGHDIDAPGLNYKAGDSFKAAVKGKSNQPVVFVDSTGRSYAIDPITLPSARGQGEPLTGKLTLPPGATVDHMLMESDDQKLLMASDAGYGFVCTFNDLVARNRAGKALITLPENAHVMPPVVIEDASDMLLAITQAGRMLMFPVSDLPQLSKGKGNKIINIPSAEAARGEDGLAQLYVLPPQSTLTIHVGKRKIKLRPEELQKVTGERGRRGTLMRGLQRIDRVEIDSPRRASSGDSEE
Protocol: as §4, §5

[5] = Staphylococcus aureus ATCC-12600, agar dilution, 37 °C, 24 h
[6] = Listeria monocytogenes ATCC-15313, agar dilution, 37 °C, 24 h
[7] = Salmonella gallinarum ATCC-9184, agar dilution, 37 °C

In the case of `O=C(O)c1cn(C2CC2)c2cc(N3CCNCC3)c(F)cc2c1=O` [CIP, Ciprofloxacin, reference compound], the MIC ([1]; Listeria monocytogenes, ATCC15313, 24 h) is reported as 1 µg/mL (≈ 3.02 µM) and the MIC [2] is reported as 0.25 µg/mL (≈ 0.754 µM).

With `Cc1nn(-c2ccccc2)c(Cl)c1C(=O)Oc1ncn(-c2ccccc2)n1` [Compound 4a, 1-phenyl-1H-1,2,4-triazol-3-yl5-chloro-3-methyl-1-phenyl-1H-pyrazole-4-carboxylate] the “MIC S.a” value [3, 5] was 16 µg/mL (≈ 42.1 µM), the “MIC L.m” value [1, 6] was 16 µg/mL (≈ 42.1 µM) and the “MIC E. c” value [4] was 8 µg/mL (≈ 21.1 µM). For the same molecule, the “MIC S.e” value [2, 7] was 16 µg/mL (≈ 42.1 µM).

For `Cc1nn(-c2ccc(F)cc2)c(Cl)c1C(=O)Oc1ncn(-c2ccccc2)n1` [Compound 4b, 1-phenyl-1H-1,2,4-triazol-3-yl5-chloro-1-(4-fluorophenyl)-3-methyl-1H-pyrazole-4-carboxylate], the “MIC S.a” value [3, 5] was >128 µg/mL, the “MIC L.m” value [1, 6] was >128 µg/mL and the “MIC E. c” value [4] was 64 µg/mL (≈ 161 µM). The “MIC S.e” value [2, 7] was 64 µg/mL (≈ 161 µM).

In the case of `Cc1nn(-c2ccc(Cl)cc2)c(Cl)c1C(=O)Oc1ncn(-c2ccccc2)n1` [Compound 4c, 1-phenyl-1H-1,2,4-triazol-3-yl5-chloro-1-(4-chlorophenyl)-3-methyl-1H-pyrazole-4-carboxylate], the “MIC S.a” value [3, 5] is reported as 64 µg/mL (≈ 154 µM), the “MIC L.m” value [1, 6] is reported as >128 µg/mL and the “MIC E. c” value [4] is reported as 64 µg/mL (≈ 154 µM). The “MIC S.e” value [2, 7] was 64 µg/mL (≈ 154 µM).

With `Cc1ccc(-n2nc(C)c(C(=O)Oc3ncn(-c4ccccc4)n3)c2Cl)cc1` [Compound 4d, 1-phenyl-1H-1,2,4-triazol-3-yl5-chloro-3-methyl-1-(p-tolyl)-1H-pyrazole-4-carboxylate] the MIC ([3]; Staphylococcus aureus ATCC-12600, agar dilution, 37 °C, 24 h, read-out: MIC S.a) was 4 µg/mL (≈ 10.2 µM), the MIC ([3]; Staphylococcus aureus, range stated in text for three compounds, read-out: MIC against Staphylococcus aureus) was 4 to 8 µg/mL (≈ 10.2 to 20.3 µM) and the MIC ([1]; ATCC15313, Listeria monocytogenes ATCC-15313, agar dilution, 37 °C, 24 h) was 2 µg/mL (≈ 5.08 µM). The MIC ([4]; ATCC25922, 37 °C) was 4 µg/mL (≈ 10.2 µM), the MIC [2, 7] was 0.5 µg/mL (≈ 1.27 µM) and the IC50 (DNA gyrase) was 34.3 µM. For the same molecule, the IC50 (topoisomerase IV; read-out: IC50 Topo IV (converted)) was 61.4 µM and the melting point was 154 to 156 °C.

In the case of `Cc1nn(-c2ccccc2)c(Cl)c1C(=O)Oc1ncn(-c2ccc(F)cc2)n1` [Compound 4e, 1-(4-fluorophenyl)-1H-1,2,4-triazol-3-yl5-chloro-3-methyl-1-phenyl-1H-pyrazole-4-carboxylate], the “MIC S.a” value [3, 5] is reported as 64 µg/mL (≈ 161 µM), the “MIC L.m” value [1, 6] is reported as 32 µg/mL (≈ 80.4 µM) and the “MIC E. c” value [4] is reported as 32 µg/mL (≈ 80.4 µM). For the same molecule, the “MIC S.e” value [2, 7] was 32 µg/mL (≈ 80.4 µM).

For `Cc1nn(-c2ccc(F)cc2)c(Cl)c1C(=O)Oc1ncn(-c2ccc(F)cc2)n1` [Compound 4f, 1-(4-fluorophenyl)-1H-1,2,4-triazol-3-yl5-chloro-1-(4-fluorophenyl)-3-methyl-1H-pyrazole-4-carboxylate], the “MIC S.a” value [3, 5] was >128 µg/mL, the “MIC L.m” value [1, 6] was >128 µg/mL and the “MIC E. c” value [4] was >128 µg/mL. The “MIC S.e” value [2, 7] was >128 µg/mL.

For `Cc1nn(-c2ccc(Cl)cc2)c(Cl)c1C(=O)Oc1ncn(-c2ccc(F)cc2)n1` [Compound 4g, 1-(4-fluorophenyl)-1H-1,2,4-triazol-3-yl5-chloro-1-(4-chlorophenyl)-3-methyl-1H-pyrazole-4-carboxylate], the “MIC S.a” value [3, 5] was 64 µg/mL (≈ 148 µM), the “MIC L.m” value [1, 6] was 64 µg/mL (≈ 148 µM) and the “MIC E. c” value [4] was 64 µg/mL (≈ 148 µM). For the same molecule, the “MIC S.e” value [2, 7] was 64 µg/mL (≈ 148 µM).

For `Cc1ccc(-n2nc(C)c(C(=O)Oc3ncn(-c4ccc(F)cc4)n3)c2Cl)cc1` [Compound 4h, 1-(4-fluorophenyl)-1H-1,2,4-triazol-3-yl5-chloro-3-methyl-1-(p-tolyl)-1H-pyrazole-4-carboxylate], the “MIC S.a” value [3, 5] was 8 µg/mL (≈ 19.4 µM), the “MIC L.m” value [1, 6] was 16 µg/mL (≈ 38.9 µM) and the “MIC E. c” value [4] was 32 µg/mL (≈ 77.7 µM). The “MIC S.e” value [2, 7] was 32 µg/mL (≈ 77.7 µM).

For `Cc1nn(-c2ccc(F)cc2)c(Cl)c1C(=O)Oc1ncn(-c2ccc(Cl)cc2)n1` [Compound 4i, 1-(4-chlorophenyl)-1H-1,2,4-triazol-3-yl5-chloro-1-(4-fluorophenyl)-3-methyl-1H-pyrazole-4-carboxylate], the “MIC S.a” value [3, 5] was >128 µg/mL, the “MIC L.m” value [1, 6] was 64 µg/mL (≈ 148 µM) and the “MIC E. c” value [4] was >128 µg/mL. For the same molecule, the “MIC S.e” value [2, 7] was 64 µg/mL (≈ 148 µM).

For `Cc1nn(-c2ccc(Cl)cc2)c(Cl)c1C(=O)Oc1ncn(-c2ccc(Cl)cc2)n1` [Compound 4j, 1-(4-chlorophenyl)-1H-1,2,4-triazol-3-yl5-chloro-1-(4-chlorophenyl)-3-methyl-1H-pyrazole-4-carboxylate], the “MIC S.a” value [3, 5] was 64 µg/mL (≈ 143 µM), the “MIC L.m” value [1, 6] was 64 µg/mL (≈ 143 µM) and the “MIC E. c” value [4] was 64 µg/mL (≈ 143 µM). For the same molecule, the “MIC S.e” value [2, 7] was 32 µg/mL (≈ 71.3 µM).

With `Cc1ccc(-n2cnc(OC(=O)c3c(C)nn(-c4ccccc4)c3Cl)n2)cc1` [Compound 4k, 1-(p-tolyl)-1H-1,2,4-triazol-3-yl-5-chloro-3-methyl-1-phenyl-1H-pyrazole-4-carboxylate] the “MIC S.a” value [3, 5] was 4 µg/mL (≈ 10.2 µM), the “MIC L.m” value [1, 6] was 8 µg/mL (≈ 20.3 µM) and the “MIC E. c” value [4] was 4 µg/mL (≈ 10.2 µM). For the same molecule, the “MIC S.e” value [2, 7] was 4 µg/mL (≈ 10.2 µM), the “IC50 Gyrase” value (DNA gyrase) was 25.7 µg/mL (≈ 65.3 µM) and the “IC50 Topo IV” value (topoisomerase IV) was 33.1 µg/mL (≈ 84 µM).

With `Cc1ccc(-n2cnc(OC(=O)c3c(C)nn(-c4ccc(F)cc4)c3Cl)n2)cc1` [Compound 4l, 1-(p-tolyl)-1H-1,2,4-triazol-3-yl5-chloro-1-(4-fluorophenyl)-3-methyl-1H-pyrazole-4-carboxylate] the “MIC S.a” value [3, 5] was 32 µg/mL (≈ 77.7 µM), the “MIC L.m” value [1, 6] was 64 µg/mL (≈ 155 µM) and the “MIC E. c” value [4] was 32 µg/mL (≈ 77.7 µM). For the same molecule, the “MIC S.e” value [2, 7] was 32 µg/mL (≈ 77.7 µM).
